Reference: PMC5608352, “Formyl peptide derived lipopeptides disclose differences between the receptors in mouse and men and call the pepducin concept in question” (PLoS ONE, 2017)
Entries after “also recorded” stand apart in the source; their conditions may differ.

What was measured:
Assay type in all cases: cell-based
Fpr2 = target: T1, Fpr2 (Mus musculus, UniProt O88536); assay: Inhibition of F2Pal16-induced superoxide release, WT mouse neutrophils; details: Boc2 2 μM or peptidomimetic inhibitor 1 μM (five experiments), or mF2Pal16 500 nM against F2Pal16 500 nM (three experiments); 5 min pre-incubation
T1 construct: WT mouse neutrophils (5 x 10^4 cells) were pre-incubated without (solid line) or with mF2Pal16; endogenous in cells; host or cells: bone marrow neutrophils of C57BL/6 wild-type mice, TNF-alpha primed
T1 sequence (O88536 1-351): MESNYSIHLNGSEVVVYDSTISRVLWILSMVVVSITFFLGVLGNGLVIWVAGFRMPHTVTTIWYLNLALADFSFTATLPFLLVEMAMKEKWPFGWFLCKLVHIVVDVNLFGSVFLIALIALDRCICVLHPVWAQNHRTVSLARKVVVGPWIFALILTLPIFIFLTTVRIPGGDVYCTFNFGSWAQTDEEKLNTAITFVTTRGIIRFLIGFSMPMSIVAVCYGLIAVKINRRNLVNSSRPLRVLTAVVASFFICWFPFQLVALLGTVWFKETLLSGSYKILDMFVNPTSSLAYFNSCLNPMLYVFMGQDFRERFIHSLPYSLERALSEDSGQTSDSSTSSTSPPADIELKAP
Text: Mice (8–12 weeks of age) were killed by cervical dislocation, the femurs and tibias were removed and freed of soft tissue attachments, and the extreme distal tip of each extremity was cut off. KRG without Ca^2+ and Mg^2+ (KRG-) was forced through the bone by using a 1-mL syringe with a 27-gauge needle. After dispersing cell clumps and removing the debris, the bone marrow granulocytes were isolated according to an earlier described procedure with some modifications. Briefly, a cell suspension in 2 mL of KRG- was laid on top of a three-layer Percoll gradient (1.095, 1.085, and 1.070 g/mL). The density of each Percoll solution was verified using density marker beads. After centrifugation at 500 × g for 30 min at 4°C in a swinging bucket rotor, the lowest band (1.085/1.095 g/mL interface) was collected as the neutrophil fraction. After washing with KRG-, remaining red blood cells were eliminated by hypotonic lysis. After a final wash with KRG-, the cells were resuspended in KRG. The cell number and population of bone marrow cells were determined by flow cytometry based on forward scatter (size) and side scatter (density) localization.
NADPH-oxidase activity was determined using an isoluminol and HRP-enhanced chemiluminescence (CL) system that allow for the determination of superoxide production. The CL activity was measured in a six-channel Biolumat LB 9505 apparatus (Berthold Co., Wildbad, Germany), using disposable 4-mL polypropylene tubes with 1 mL reaction mixture. […] The light emission was recorded continuously over time and presented as superoxide production (in arbitrary light units, cpm x10^-6) as a function of time (min). The activity before stimulus addition was recorded as basal line and this activity was not changed in vehicle control samples. […]
Data analysis was performed using Graph Pad Prism 7.0. The EC50/IC50 values were determined from experiments in which the activities were normalized to the response induced by maximal response or induced by agonist in the absence of inhibitor. […]

Fpr2^-/- neutrophils = assay: Inhibition of F2Pal16-induced superoxide release, Fpr2^-/- mouse neutrophils; details: Boc2 2 μM, 5 min pre-incubation; F2Pal16 500 nM
Text: (§1) C57BL/6 wild-type mice were purchased from Charles River Laboratories and Fpr2^−/− mice generated as described previously, were generously provided by Dr Ji Ming Wang, Frederick National Laboratory for Cancer Research, USA. Mice were kept under standard temperature and light conditions and fed laboratory chow and water ad libitum, at the Department of Rheumatology and Inflammation Research, University of Gothenburg. Sex matched WT and Fpr2^-/- animals (age 8–10 weeks) were used to isolated bone marrow derived neutrophils. The studies performed were approved by the Ethical Committee for Animal Experimentation, Göteborg, Sweden.
(§2) Mice (8–12 weeks of age) were killed by cervical dislocation, the femurs and tibias were removed and freed of soft tissue attachments, and the extreme distal tip of each extremity was cut off. […] The cell number and population of bone marrow cells were determined by flow cytometry based on forward scatter (size) and side scatter (density) localization.
(§3) NADPH-oxidase activity was determined using an isoluminol and HRP-enhanced chemiluminescence (CL) system that allow for the determination of superoxide production. The CL activity was measured in a six-channel Biolumat LB 9505 apparatus (Berthold Co., Wildbad, Germany), using disposable 4-mL polypropylene tubes with 1 mL reaction mixture. […]

Fpr1 = assay: Inhibition of fMIFL-induced superoxide release, Fpr2^-/- mouse neutrophils; details: Boc2 2 μM, 5 min pre-incubation; fMIFL 10 nM
Text: as §1, §2, §3

Substance: Boc-FLFLF [Boc2, Fpr1 antagonist]
- effect of inhibitor on F2Pal16 response, WT mouse neutrophils (Fpr2): no effect on the pepducin response
- effect of inhibitor on F2Pal16 response, Fpr2^-/- neutrophils (Fpr2^-/- neutrophils): insensitive to Boc2; also recorded: no effect on the pepducin response
- effect of inhibitor on fMIFL response, Fpr2^-/- neutrophils (Fpr1): completely abolished
